Experimental data published in patent US20030157159A1, “Prevention and treatment of digestive tract infections” (priority 2002, published 2003).

Columns and labels:
[1] = tested on: E. coli strains AW574 or AW405; assay: Lysis of E. coli by terpenes (B-galactosidase/ONPG assay); type: cell-based
From the text: Lysis of the cell membrane was monitored by the determination of galactosidase activity. B-galactosidase is a well-characterized cytosolic enzyme in bacteria. This enzyme is inducible in the presence of isopropyl-1-thiogalactosidase (IPTG) and assayed colorimetricaly with substrate o-nitro-phenyl-B-D-galactoside (ONPG). ONPG is cleaved to release o-nitrophenol with peak absorbance at 420 nm. Since intact E. coli is impermeable to both ONPG and the enzyme, the cells have to be lysed prior to enzymatic assay. Therefore the ability of terpenes to lyse E. coli can be measured with this enzymatic assay and compared to known lysing agents. The procedure used was as follows: E. coli strains AW574 or AW405 were cultured overnight in 10 ml tryptone broth with […] at 35° C. Cells were allowed to growth after an absorbance equal to 0.9 was reached. Cells were harvested, washed with phosphate buffer and resuspended to an absorbance equal to 0.5. One tenth of a ml of the bacteria culture was added to 0.9 ml of buffer, warmed to 30° C. and then 80 ul of terpenes (85% terpenes and 15% polysorbate-80), 80 ul water (background) or 40 ul chloroform plus 40 ul 1% SDS in water (positive control) were added. After the addition of the lysing agents the tubes were mixed for 10 seconds and 0.2 ml of ONPG (4 mg/ml water) was added, then incubated for 5 minutes. The enzyme activity was stopped with 0.5 ml of 1 M sodium carbonate. After being centrifuged for 3 minutes at 1,500×g, supernatant was transferred to cuvettes and read at 420 nm. The relative degree of lysis caused by terpenes was calculated as follows:
100×(OD terpenes−OD water)/(OD chloroform−OD water)

H. pylori strain #26695 = assay: bactericidal effect of selected terpenes on H. pylori viability; type: cell-based, Helicobacter pylori; design: key: *NG = no growth; **TNTC = Too Numerous To Count; settings: 10^6 cfu, 24 hours
Description: Five terpenes (anethole, carvone, citral, geraniol and b-ionone) were used for this study. […] The H. pylori used was strain #26695 of […], this bacteria is a motile, cag A, vac A cytotoxin-positive gram negative bacteria which colonizes gnotobiotic piglets and indefinitely persists within the gastric microenvironment as a superficial infection of the gastric mucosa and mucus layer. 1) Stock solutions of each terpene with polysorbate-80 were prepared (1.8 ml terpene plus 0.2 ml polysorbate-80. […] 3) A total of 1.0×10^6 bacteria (30 ul) was added to 970 ul terpene dilutions (final volume of 1.0 ml) in loosely capped tubes and incubated for 24 hours at 37° C. with continuous mixing. […] Bacterial colony forming units (cfu) were determined visual (counting) inspection. Recovered bacteria were confirmed to be H. pylori by catalase and urease enzyme activities.

E. coli strain AW574 = assay: single terpene or combination against E. coli growth (O.D.); type: cell-based; settings: single terpene 2 uMol; 24 hours; compared to the control treatment
Description: The objective of this example was to determine an optimum terpene mixture which could have a greater biocidal effect. E. coli strain AW574 was grown in tryptone broth to an exponential growth phase (O.D. between 0.4 and 1.0 at 590 nm). One tenth of this growth was inoculated to 10 ml of tryptone broth following by the addition of individual terpenes or as indicated on table 2; then incubated for 24 hours at 35-37° C. and the O.D. determined in each tube. The concentration of terpenes was 1 or 2 uMol. Each treatment was repeated in triplicate. The results are expressed as percentage bacterial growth as compared to the control treatment. It is observed that the combination of terpenes give better biocidal effect than single terpenes, with geraniol and carvone better than b-ionone.

Traveler's Diarrhea = settings: Ericsson, Charles (1998); cited from earlier work
E. coli = settings: cited from earlier work
H pylori = settings: in vitro; cited from earlier work
[2] = final dilution 1:10 of stock (90% terpene plus 10% polysorbate-80)
[3] = final dilution 1:10000 of stock
[4] = final dilution 1:50000 of stock

| Molecule | H. pylori growth (cfu recovered) (H. pylori strain #26695; [2]) | H. pylori growth (cfu recovered) (H. pylori strain #26695; final dilution 1:50 of stock) | H. pylori growth (cfu recovered) (H. pylori strain #26695; final dilution 1:100 of stock) | H. pylori growth (cfu recovered) (H. pylori strain #26695; final dilution 1:500 of stock) | H. pylori growth (cfu recovered) (H. pylori strain #26695; final dilution 1:1000 of stock) | H. pylori growth (cfu recovered) (H. pylori strain #26695; final dilution 1:5000 of stock) | H. pylori growth (cfu recovered) (H. pylori strain #26695; [3]) | H. pylori growth (cfu recovered) (H. pylori strain #26695; [4]) | % growth (E. coli strain AW574) | further results |
| --- | --- | --- | --- | --- | --- | --- | --- | --- | --- | --- |
| CC(=O)/C=C/C1=C(C)CCCC1(C)C [b-Ionone] | NG | NG | NG | NG | NG | NG | NG | TNTC | 84.00% | Relative lysis ([1]; 0.0308 uM): 1.3%; Relative lysis ([1]; 0.308 uM): 4.78%; Relative lysis ([1]; 3.08 uM): 23%; Relative lysis ([1]; 30.8 uM): 44%; Relative lysis ([1]; 308 uM): 52% |
| Trimethropim-sulfamethoxazole [reference compound] | – | – | – | – | – | – | – | – | – | Efficacy (Traveler's Diarrhea): 70-80% protective |
| Polysorbate-80 [reference compound] | NG* | NG | NG | 10^3 cfu | 10^4 cfu | TNTC** | TNTC | TNTC | – | Relative lysis ([1]; 80 ul Polysorbate-80): 3.2% |
| CC(C)=CCCC(C)=CC=O [Citral] | NG | NG | NG | NG | NG | NG | NG | TNTC | – | concentration in growth media that reduced the concentration of E. coli (E. coli): more than 0.01%; concentration with bactericidal effect (E. coli; growth media): 0.08% |
| CC(C)=CCC/C(C)=C/CO [Geraniol] | NG | NG | NG | NG | NG | NG | 10^2 cfu | TNTC | 54.00% | Relative lysis ([1]; 3.63 uM): 2.4%; Relative lysis ([1]; 36.3 uM): 4%; Relative lysis ([1]; 363 uM): 34%; Relative lysis ([1]; 3,630 uM): 98%; Relative lysis ([1]; 36,300 uM): 96%; concentration that inhibited the growth of H pylori (H pylori): 2 mg/lt. |
| Lactobacillus | – | – | – | – | – | – | – | – | – | Efficacy (Traveler's Diarrhea): Not proven |
| CC=Cc1ccc(OC)cc1 [Anethole] | NG | NG | NG | NG | 10^3 cfu | 10^3 cfu | TNTC | TNTC | – | – |
| C=C(C)C1CC=C(C)C(=O)C1 (stereo not shown) [Carvone] | NG | NG | NG | NG | NG | 10^4 cfu | TNTC | TNTC | 63.00% | Relative lysis ([1]; 404 uM): 3.2%; Relative lysis ([1]; 4,040 uM): 22%; Relative lysis ([1]; 40,400 uM): 54% |
